As a reminder, the EC50 is the concentration needed to bring the measured effect to its halfway point. Broadly, the CC50 is the concentration giving 50% cytotoxicity. Low values mean harm at low concentration, high ones better tolerance by the cells.

The subject of series [1] is HBV (HepG2.117 cell line, inducibly HBV producing). Kind of series: Anti-HBV activity: intracellular HBV DNA by real-time PCR in HepG2.117 cells after 3 days of treatment. The series is classed as cell-based, hepatitis B virus. In a few lines: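 Antiviral effect is expressed through intracellular HBV DNA levels, determined by real-time PCR with a virus-specific probe. These levels were measured after 3 days of treatment with compound dilutions, in HepG2.117 cells induced to replicate HBV.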
A general note: In qPCR the cycle at which signal appears reflects the starting amount.

A further series in a line: in vitro. The series is classed as cell-based. Particulars: human, HepG2 or HepG2.117 cells, ATPlite, mean value. In short, it runs like this: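 Luminescent ATP quantitation served as the viability endpoint following a 3- or 4-day incubation with test compounds.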
(In general: In ATP-based viability assays light output follows the ATP content of the culture.)

[2] abbreviates: Hepatitis B virus, HepG2.117, 72 h, HepG2.117 cells, 3 days of treatment, intracellular HBV DNA by real-time PCR; mean value; read-out: EC50 (μM, mean value).
Setting [3] is: Hepatitis B virus, HepG2.117, 72 h, HepG2.117 cells, intracellular HBV DNA by real-time PCR, 3 days of treatment, mean value; read-out: EC50 (μM, mean value).
[4] abbreviates: 3-days incubation (not marked with *).
Where [5] appears, read: 3-days incubation (unmarked values).

SMILES strings stand for the structures. Like-named read-outs stand apart in the source and are kept apart here. A value given as a limit tells only on which side of the number the result lay.

Turning to `COc1ccccc1-n1c(NCc2ccccn2)nc2c(c1=O)CCN(C(=O)c1ccc(Cl)c(Cl)c1)C2` [Compound C12, 7-(3,4-dichlorobenzoyl)-3-(2-methoxyphenyl)-2-{[(pyridin-2-yl)methyl]amino}-5,6,7,8-tetrahydropyrido[3,4-d]pyrimidin-4(3H)-one], in series [1] (setting [2]), the 50% effective concentration (EC50) was 5.95 µM. Moreover, in “in vitro” (4-days incubation (values marked with *)), the CC50 at 4 days is above 50 µM.
In the case of `CNC(=O)c1ccc(-n2c(NCCCc3nc(=O)[nH][nH]3)nc3c(c2=O)C[C@@H](C)N(C(=O)c2ccc(Cl)c(Cl)c2)C3)cc1` [Compound C599], the EC50 in series [1] (setting [3]) was above 25 µM. The compound also gave a cytotoxic concentration (CC50) at 3 days in the series “in vitro” (setting [4]) above 50 µM.
The like results for `CNC(=O)c1ccc(-n2c(NC(C)C)nc3c(c2=O)C[C@@H](C)N(C(=O)c2cc4c(C)c(F)ccc4[nH]2)C3)cc1` [Compound C570] were, in that order, 0.01 µM and 24.5 µM.
Taken in the same sequence, the figures for `CNC(=O)c1ccc(-n2c(N3C[C@@H](C#N)[C@H](c4ccccc4)C3)nc3c(c2=O)C[C@@H](C)N(C(=O)c2ccc(Cl)c(Cl)c2)C3)cc1` [Compound C487] were 0.25 µM and above 50 µM.
Taken in the same sequence, the figures for `CC(C)Nc1nc2c(c(=O)n1-c1ccc(-n3cnnn3)cc1)C[C@@H](C)N(C(=O)c1ccc(Cl)c(Cl)c1)C2` [Compound C460] were 0.09 µM and above 50 µM.
As for `CNC(=O)c1ccc(-n2c(N[C@@H](C)CCO)nc3c(c2=O)C[C@@H](C)N(C(=O)c2ccc(Cl)c(Cl)c2)C3)cc1` [Compound C276, 4-[(6R)-7-(3,4-dichlorobenzoyl)-2-{[(2S)-4-hydroxybutan-2-yl]amino}-6-methyl-4-oxo-5,6,7,8-tetrahydropyrido[3,4-d]pyrimidin-3(4H)-yl]-N-methylbenzamide], the EC50 in series [1] (setting [2]) was 1.68 µM. This compound also returned a CC50 at 3 days in the series “in vitro” (setting [5]) above 50 µM.
In the case of `CNC(=O)c1ccc(-n2c(NCC34C5C6C7C5C3C7C64)nc3c(c2=O)C[C@@H](C)N(C(=O)c2ccc(Cl)c(Cl)c2)C3)cc1` (some centres unmarked) [Compound C451], in series [1] (setting [3]), the EC50 was determined as 0.41 µM. In the series “in vitro” (setting [4]), this compound came in with a CC50 at 3 days above 50 µM.
For the compound `CNC(=O)c1ccc(-n2c(NC(C)C)nc3c(c2=O)C[C@@H](C)N(C(=O)c2ccc(Cl)cc2F)C3)cc1` [Compound C520], the EC50 in series [1] (setting [3]) was found to be 3.74 µM. The compound further had a CC50 at 3 days in the series “in vitro” (setting [4]) above 50 µM.
Regarding `CNC(=O)c1ccc(-n2c(N[C@@H](C)c3ccnn3C)nc3c(c2=O)C[C@@H](C)N(C(=O)c2ccc(Cl)c(Cl)c2)C3)cc1` (single isomer, unassigned) [Compound C372b], the EC50 in series [1] (setting [2]) turned out to be 2.54 µM. The CC50 at 3 days in “in vitro” (setting [5]) was above 50 µM.
Taken in the same sequence, the figures for `COc1ccc(CNc2nc3c(c(=O)[nH]2)CCN(C(=O)c2ccc(Cl)c(C)c2)C3)cc1` [Compound C60, 7-(4-chloro-3-methylbenzoyl)-2-{[(4-methoxyphenyl)methyl]amino}-5,6,7,8-tetrahydropyrido[3,4-d]pyrimidin-4(3H)-one] were 3.25 µM and 23.8 µM.
Take `CNC(=O)c1ccc(-n2c(N[C@@H](C)c3ccccc3OC)nc3c(c2=O)C[C@@H](C)N(C(=O)c2ccc(Cl)c(Cl)c2)C3)cc1` (single isomer, unassigned) [Compound C402b]: the EC50 in series [1] (setting [3]) was determined as 0.08 µM. Moreover, in “in vitro” (setting [4]), it took 18.8 µM to reach half-maximal cytotoxicity (CC50 at 3 days).
Take `COc1ccc(CNc2nc3c(c(=O)n2C2CCCC2)CCN(C(=O)c2ccc(Cl)c(Cl)c2)C3)cc1` [Compound C73, 3-cyclopentyl-7-(3,4-dichlorobenzoyl)-2-{[(4-methoxyphenyl)methyl]amino}-5,6,7,8-tetrahydropyrido[3,4-d]pyrimidin-4(3H)-one]: the EC50 in series [1] (setting [2]) is 9.37 µM. Besides, the CC50 at 3 days in the series “in vitro” (setting [5]) was above 50 µM.
Consider `CNC(=O)c1ccc(-n2c(NC(C)C)nc3c(c2=O)C[C@@H](C)N(C(=O)c2ccc(C(F)F)c(F)c2)C3)cc1` [Compound C500], for which, in series [1] (setting [3]), the EC50 is 0.59 µM. The CC50 at 3 days in the series “in vitro” (setting [4]) was above 50 µM.
The like results for `CNC(=O)c1ccc(-n2c(N[C@@H](C)c3nccs3)nc3c(c2=O)C[C@@H](C)N(C(=O)c2ccc(Cl)c(Cl)c2)C3)cc1` (single isomer, unassigned) [Compound C434b] were, in that order, 0.84 µM and above 50 µM.
The like results for `CC(C)Nc1nc2c(c(=O)n1-c1ccc(C(=O)N3CCOCC3)cc1)C[C@@H](C)N(C(=O)c1ccc(Cl)c(C(F)F)c1)C2` [Compound C682] were, in that order, 0.12 µM and above 50 µM.
For the compound `COc1ccc(CNc2nc3c(c(=O)n2-c2ccc(N4CCC(NC(=O)OC(C)(C)C)C4)cc2)CCN(C(=O)c2ccc(Cl)c(Cl)c2)C3)cc1` (centres unmarked) [Compound C161, tert-butyl (1-{4-[7-(3,4-dichlorobenzoyl)-2-{[(4-methoxyphenyl)methyl]amino}-4-oxo-5,6,7,8-tetrahydropyrido[3,4-d]pyrimidin-3(4H)-yl]phenyl}pyrrolidin-3-yl)carbamate], the EC50 in series [1] (setting [2]) is 2.4 µM. Also, in “in vitro” (setting [5]), the CC50 at 3 days was above 50 µM.
The like results for `CC(C)Nc1nc2c(c(=O)n1-c1ccc(S(C)(=O)=O)cc1)[C@H](C)CN(C(=O)c1ccc(Cl)c(Cl)c1)C2` (single isomer, unassigned) [Compound C154B, (*S)-7-(3,4-dichlorobenzoyl)-2-(isopropylamino)-5-methyl-3-(4-(methylsulfonyl)-phenyl)-5,6,7,8-tetrahydropyrido[3,4-d]pyrimidin-4(3H)-one] were, in that order, 0.51 µM and above 50 µM.
Take `CNC(=O)c1ccc(-n2c(NCc3nnn(C)c3C(F)(F)F)nc3c(c2=O)C[C@@H](C)N(C(=O)c2ccc(Cl)c(Cl)c2)C3)cc1` [Compound C539]: the EC50 in series [1] (setting [3]) came out at 5.47 µM. For the same compound, the CC50 at 3 days in “in vitro” (setting [4]) was above 50 µM.
For `COc1ccc(Cn2c(N)nc3c(c2=O)CCN(C(=O)c2ccc(Cl)c(Cl)c2)C3)cc1` [Compound C76, 2-amino-7-(3,4-dichlorobenzoyl)-3-[(4-methoxyphenyl)methyl]-5,6,7,8-tetrahydropyrido[3,4-d]pyrimidin-4(3H)-one], the EC50 in series [1] (setting [2]) stood at 9.63 µM. The compound further gave a CC50 at 3 days in “in vitro” (setting [5]) of 7.1 µM.
The like results for `COCCn1c(NCc2ccc(OC)cc2)nc2c(c1=O)CCN(C(=O)c1ccc(Cl)c(Cl)c1)C2` [Compound C51, 7-(3,4-dichlorobenzoyl)-3-(2-methoxyethyl)-2-{[(4-methoxyphenyl)methyl]amino}-5,6,7,8-tetrahydropyrido[3,4-d]pyrimidin-4(3H)-one] were, in that order, 4.35 µM and 36.6 µM.
Take `CNC(=O)c1ccc(-n2c(NC(C)C)nc3c(c2=O)C[C@@H](C)N(C(=O)c2ccc(Cl)c(C(F)F)c2)C3)cc1` [Compound C427]: the EC50 in series [1] (setting [3]) was 0.05 µM. For the same compound, the CC50 at 3 days in the series “in vitro” (setting [4]) is above 50 µM.
Turning to `COc1ccc(CNc2nc3c(c(=O)n2-c2ccccc2OC)CCN(C(=O)c2ccc(Cl)c(Cl)c2)C3)cc1` [Compound C1, 7-(3,4-dichlorobenzoyl)-3-(2-methoxyphenyl)-2-{[(4-methoxyphenyl)methyl]amino}-5,6,7,8-tetrahydropyrido[3,4-d]pyrimidin-4(3H)-one], the concentration for a half-maximal effect (EC50) in series [1] (setting [2]) was 1.47 µM. Besides, in the series “in vitro” (setting [5]), the half-maximal cytotoxic concentration (CC50) at 3 days is above 50 µM.
Take `CNC(=O)c1ccc(-n2c(NC(C)C)nc3c(c2=O)C[C@@H](C)N(C(=O)c2ccc(Br)cc2OC(F)F)C3)cc1` [Compound C522]: the EC50 in series [1] (setting [3]) is 0.77 µM. Besides, the CC50 at 3 days in the series “in vitro” (setting [4]) is above 50 µM.
In the case of `CNC(=O)c1cnc(-n2c(NC)nc3c(c2=O)C[C@@H](C)N(C(=O)c2ccc(Cl)c(Cl)c2)C3)cn1` [Compound C287, 5-[(6R)-7-(3,4-dichlorobenzoyl)-6-methyl-2-(methylamino)-4-oxo-5,6,7,8-tetrahydropyrido[3,4-d]pyrimidin-3(4H)-yl]-N-methylpyrazine-2-carboxamide], in series [1] (setting [2]), the EC50 was 0.75 µM. The CC50 at 3 days in “in vitro” (setting [5]) was above 50 µM.
The like results for `CCc1cc(C(=O)N2CCc3c(nc(NC(C)C)n(-c4ccc(S(C)(=O)=O)cc4)c3=O)C2)ccc1Cl` [Compound C193, 7-(4-chloro-3-ethylbenzoyl)-3-[4-(methanesulfonyl)phenyl]-2-[(propan-2-yl)amino]-5,6,7,8-tetrahydropyrido[3,4-d]pyrimidin-4(3H)-one] were, in that order, 0.62 µM and above 50 µM.
Taken in the same sequence, the figures for `C#C[C@@H]1CCCN1c1nc2c(c(=O)n1-c1ccc(C(=O)NC)cc1)C[C@@H](C)N(C(=O)c1ccc(Cl)c(Cl)c1)C2` (single isomer, unassigned) [Compound C351, 4-[(6R)-7-(3,4-dichlorobenzoyl)-2-[(2*S)-2-ethynylpyrrolidin-1-yl]-6-methyl-4-oxo-5,6,7,8-tetrahydropyrido[3,4-d]pyrimidin-3(4H)-yl]-N-methylbenzamide] were 0.2 µM and above 50 µM.
`COc1ccc(CNc2nc3c(c(=O)[nH]2)CCN(C(=O)c2ccc(Br)c(F)c2)C3)cc1` [Compound C69, 7-(4-bromo-3-fluorobenzoyl)-2-{[(4-methoxyphenyl)methyl]amino}-5,6,7,8-tetrahydropyrido[3,4-d]pyrimidin-4(3H)-one]: in series [1] (setting [2]), the EC50 stood at 10 µM. This compound displayed a CC50 at 3 days in “in vitro” (setting [5]) of 21 µM.
On to `C[C@@H]1Cc2c(nc(NC(C)(C)c3cnn(C)c3)n(-c3ccc(S(C)(=O)=O)cc3)c2=O)CN1C(=O)c1ccc(Cl)c(Cl)c1` [Compound C207, (6R)-7-(3,4-dichlorobenzoyl)-3-[4-(methanesulfonyl)phenyl]-6-methyl-2-{[2-(1-methyl-1H-pyrazol-4-yl)propan-2-yl]amino}-5,6,7,8-tetrahydropyrido[3,4-d]pyrimidin-4(3H)-one], for which the EC50 in series [1] (setting [2]) was 0.59 µM. The CC50 at 3 days in the series “in vitro” (setting [5]) is above 50 µM.

The values are drawn from patent US20230091047A1 (priority 2019, published 2023).
